Experimental data published in patent US5623080A, “Fluorone and pyronin Y derivatives” (Spectra Group Limited, Inc., priority 1995, dated 1997).

What was measured:
[1] = absorption wavelength (λmax) and extinction (ε); assay type: physicochemical; conditions: EtOH, Table 1
pencil hardness = test: pencil hardness
Protocol: (§1) To a resin formulation consisting of 15 parts urethane diacrylate, 15 parts DPHPA, 20 parts TPGDA and 40 parts TMPTA was added DIDMA, initiator and (4-octyloxyphenyl)phenyliodonium hexafluoroantimonate (OPPI). The samples were coated to a thickness of 15 microns and exposed to a 75 W tungsten halogen dental lamp (focused through an optical fiber) at a distance of 0.75 inch at which the Light intensity was about 0.40 W/cm^2. The molar ratios are indicative of the amounts of fluorone to onium salt to amine coinitiator. The double bond conversion was determined by FTIR spectroscopy. The pencil hardness of a given test sample is measured by holding a pencil at a 45° angle to the sample and drawing across it towards the person testing it. Using the pencils in an order from softest to hardest, the first pencil that scratches the surface is assigned as the pencil hardness of the sample. The pencil hardness scale is as follows from softest to hardest: 4B, 3B, 2B, B, HB, H, 2H, 3H, 4H, 6H. For instance, if a 2H pencil is the first pencil to scratch the surface then the pencil hardness is 2H.
At the extreme ends of the scale, it is impossible to determine the actual pencil hardness. […] Likewise, if the 4B pencil scratches the sample, the only assignment that can be made is <4B, unless it is a lot softer than 4B in which case a <<4B can be assigned. A pencil hardness of 4H is generally considered satisfactory. Pencil hardness data was greater than 6H after 30 seocnd exposure for all samples except for the control samples without amine (1:2:0). The controls were all less than 4B an 0.05 wt %, 0.10 wt %, and 0.15 wt %.
Photosensitive compositions were prepared from the resin formulation of Example 35 containing 1% NPG and 0.05% DIBF or 0.05% DIEF. The samples were exposed under the conditions shown in the following table and pencil hardness was measured.
Diphenyliodonium hexafluoroantimonate was added to DIBF samples.
Samples were also prepared using 1% DIDMA in addition to the fluorone for a 20:1 weight ratio.
Samples were also prepared from the same resin formulation containing 0.1% DIBF in addition to the coinitiator listed in the following Table 9 with the exposure condition and pencil hardness results shown.
Using the resin formulation of Example 36, photosensitive compositions were prepared using TIHF, DIDMA and OPPI at a concentration of 0.21% and in the molar ratios shown in Table 10 which follows. Exposure was conducted with the dental lamp at a distance of 1 inch from the sample to provide an intensity of about 0.26 W/cm^2. Molar ratios are fluorone:onium salt:amine.

[2] = double bond conversion (C=C% Conversion) by FTIR; conditions: 0.05 wt %; (1:2:3); NPG; 60 sec
depth of cure = test: depth of cure
From the text: One of the advantages of the fluorone dye photoinitiators in this invention is the depth of the cure that is obtainable. This is in contrast to UV photoinitators that causes a "screening" effect which prevents the UV light from penetrating beyond a certain […] depth, usually several millimeters. By contrast, the fluorone dye bleaches as it photoinitiates and is concommitantly converted into a non-visible absorbing species thus allowing more visible light to penetrate which continues the cure. This cascading bleaching effect permits substantial depth of cure which can easily reach several inches.
An acrylate monomer mixture was composed of 15 parts urethane diacrylate, 20 parts TPGPA, 40 parts TMPTA and 15 parts DPHPA, and a 20 to 1 weight ratio of NPG coinitiator to DIEF or DIBF fluorone dye. For dye concentrations of 0.01, 0.05 and 0.1 weight, all the formulations cured to a depth of 3 cm in 30 seconds when exposed to a 350 watt tungsten halogen light which provides about 500 mw/cm^2 irradiance. When the irradiance was increased to about 2 watts/cm^2 cure speed was shortened to 5 seconds for the same depth.
An acrylate mixture was composed of 60% urethane diacrylate, 30% DPHPA, 10% BDDA, and 0.05 weight % of DIEF or DIBF fluorone dye with 2 weight % of DIDMA. The formulation cure to a depth greater than 1 cm in 10 seconds when exposed to a 75 watt tungsten halogen lamp which provided an irradiance of about 260 mw/cm^2.
An acrylate mixture was composed of 33% TMPTA, 33% DPHPA, 33% Epoxy acrylate, and 2% of DIDMA with either 0.01, 0.05 or 0.1 weight % of DIEF. All samples cured to a depth greater than 1 cm in 10 seconds when exposed to a 75 watt tungsten halogen.
An acrylate mixture was composed of 70% urethane diacrylate, 5% DPHPA, 25% BDDA, and 2% DIDMA with either 0.01, 0.03 or 0.1 weight % DIEF. The 0.01 and 0.03 samples cured after 2 passes through a 300 watt per inch medium pressure mercury arc lamp at a speed of 50 feet/minute to a depth greater than 3 mm. The 0.1 sample cured to a depth of greater than 1.5 mm.

[3] = double bond conversion (C=C% Conversion) by FTIR; conditions: DIDMA
Protocol: as §1
The foregoing study was repeated using 100% butanediol diacrylate, and 100% polyethylene glycol diacrylate (MW=400)(PEGA 400).

CCCCOc1ccc2cc3cc(I)c(=O)c(I)c-3oc2c1 [DIBF, 5,7-diiodo-3-butoxy-6-fluorone]
λmax in EtOH (first value) [1]: 470 | ε (first value) ([1]; at first λmax, in M-1cm-1 (unit assumed)): 30,200 | Pencil hardness (pencil hardness; 0.05 wt. % w/ 0.05 wt. % DPISbF6, Dental Lamp, Air, 60 sec): 2H | Pencil hardness (pencil hardness; 0.05 wt. % w/ 0.05 wt. % DPISbF6, Dental Lamp, No Air, 10 sec): > 6H | Pencil hardness (pencil hardness; 0.05 wt. % w/ 0.05 wt. % DPISbF6, Fusion (Q bulb), Air, 10 ft/min): > 6H | Pencil hardness (pencil hardness; 0.05 wt. % w/ 0.05 wt. % DPISbF6, Fusion (Q bulb), Air, 20 ft/min): > 6H | Pencil hardness (pencil hardness; 0.05 wt. %, 1% DIDMA, Dental Lamp, No Air, 10 sec): 5-6H | Pencil hardness (pencil hardness; 0.05 wt. %, 1% DIDMA, Dental Lamp, No Air, 30 sec): > 6H | Pencil hardness (pencil hardness; 0.05 wt. %, 1% DIDMA, Dental Lamp, No Air, 60 sec): > 6H | Pencil hardness (pencil hardness; 0.05 wt. %, 1% DIDMA, Fusion (Q bulb), Air, 10 ft/min): > 6H | Pencil hardness (pencil hardness; 0.05 wt. %, 1% DIDMA, Fusion (Q bulb), Air, 20 ft/min): 3H | Pencil hardness (pencil hardness; 0.05 wt. %, 1% NPG, Dental Lamp, No Air, 10 sec): 4H | Pencil hardness (pencil hardness; 0.05 wt. %, 1% NPG, Dental Lamp, No Air, 30 sec): > 6H | Pencil hardness (pencil hardness; 0.05 wt. %, 1% NPG, Dental Lamp, No Air, 60 sec): > 6H | Pencil hardness (pencil hardness; 0.05 wt. %, 1% NPG, Fusion (Q bulb), Air, 10 ft/min): > 6H | Pencil hardness (pencil hardness; 0.05 wt. %, 1% NPG, Fusion (Q bulb), Air, 20 ft/min): 4H | Pencil hardness (pencil hardness; 0.05 wt. %, 1% NPG, Overhead Proj., No Air, 60 sec): 5-6H | Pencil hardness (pencil hardness; 0.1% DIBF, 1.5% DIDMA, Dental Lamp, No Air, 10 sec): > 6H | Pencil hardness (pencil hardness; 0.1% DIBF, 1.5% DIDMA, Dental Lamp, No Air, 30 sec): > 6H | Pencil hardness (pencil hardness; 0.1% DIBF, 1.5% DIDMA, Dental Lamp, No Air, 60 sec): > 6 h | Pencil hardness (pencil hardness; 0.1% DIBF, 1.5% DIDMA, Fusion (Q bulb), Air, 10 ft/min): > 6H | Pencil hardness (pencil hardness; 0.1% DIBF, 1.5% DIDMA, Fusion (Q bulb), Air, 20 ft/min): 5-6H | Pencil hardness (pencil hardness; 0.1% DIBF, 1.5% NPG, Dental Lamp, No Air, 10 sec): 5-6H | Pencil hardness (pencil hardness; 0.1% DIBF, 1.5% NPG, Dental Lamp, No Air, 30 sec): > 6H | Pencil hardness (pencil hardness; 0.1% DIBF, 1.5% NPG, Dental Lamp, No Air, 60 sec): > 6 h | Pencil hardness (pencil hardness; 0.1% DIBF, 1.5% NPG, Fusion (Q bulb), Air, 10 ft/min): > 6H | Pencil hardness (pencil hardness; 0.1% DIBF, 1.5% NPG, Fusion (Q bulb), Air, 20 ft/min): 5-6H | Pencil hardness (pencil hardness; 0.1% DIBF, 2% NPG, Dental Lamp, No Air, 10 sec): 5-6H | Pencil hardness (pencil hardness; 0.1% DIBF, 2% NPG, Dental Lamp, No Air, 30 sec): > 6H | Pencil hardness (pencil hardness; 0.1% DIBF, 2% NPG, Dental Lamp, No Air, 60 sec): > 6H | Pencil hardness (pencil hardness; 0.1% DIBF, 2% NPG, Fusion (Q bulb), Air, 10 ft/min): > 6H | Pencil hardness (pencil hardness; 0.1% DIBF, 2% NPG, Fusion (Q bulb), Air, 20 ft/min): 5-6H | Pencil hardness (pencil hardness; Table 11, 0.05%, (1:0:60), DIDMA, 10 sec.): 4H | Pencil hardness (pencil hardness; Table 11, 0.05%, (1:0:60), DIDMA, 60 sec.): > 6H | Pencil hardness (pencil hardness; Table 11, 0.05%, (1:1:60), DIDMA, 10 sec.): > 6H | Pencil hardness (pencil hardness; Table 11, 0.05%, (1:2:3), DIDMA, 60 sec.): > 6H | Pencil hardness (pencil hardness; Table 11, 0.05%, (1:2:3), NPG, 60 sec.): > 6H | Pencil hardness (pencil hardness; Table 11, 0.10%, (1:2:3), DIDMA, 60 sec.): > 6H | Pencil hardness (pencil hardness; Table 11, 0.15%, (1:2:3), DIDMA, 60 sec.): > 6H | C=C% Conversion [2]: 43% | depth of cure (depth of cure; 10 seconds, 75 watt tungsten halogen, about 260 mw/cm^2, 0.05 weight % dye, 2 weight % DIDMA, 60% urethane diacrylate, 30% DPHPA, 10% BDDA): greater than 1 cm | depth of cure (depth of cure; 30 seconds, 350 watt tungsten halogen, about 500 mw/cm^2, dye 0.01, 0.05 and 0.1 weight, NPG 20 to 1): 3 cm | cure time for the same depth (3 cm) (depth of cure; about 2 watts/cm^2, NPG 20 to 1): 5 s | C=C% Conversion ([3]; 0.05 wt %, (1:0:60), 60 sec): 50% | C=C% Conversion ([3]; 0.05 wt %, (1:2:3), 60 sec): 61% | C=C% Conversion ([3]; 0.10 wt %, (1:2:3), 60 sec): 90% | C=C% Conversion ([3]; 0.15 wt %, (1:2:3), 10 sec): 60% | C=C% Conversion ([3]; 0.15 wt %, (1:2:3), 30 sec): 84% | C=C% Conversion ([3]; 0.15 wt %, (1:2:3), 60 sec): 90%
